One may read the AC50 as the midpoint of the concentration-response curve, whichever way the signal moves. Broadly, the pIC50 is the IC50 on a negative log10 scale, so that one unit is a factor of ten.

The test system of one experiment is MYB mRNA. The experiment is described as follows: Splicing RT-qPCR assay, canonical (CJ) and alternative (AJ) junction mRNA, K562 cells. The format is cell-based. The note with it: Homo sapiens, K562.3 cells, 24 hours; for AC50: read-out: MYB AJ (AC50, increase in AJ mRNA); for pIC50: read-out: MYB CJ (IC50, decrease in CJ mRNA). The essentials:
(§1)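 K562 cells in IMDM/10% FBS treated 24 h at 37 °C with an 11-point 3-fold dilution (top 10 uM, ≤0.25% DMSO). Lysates went to one-step RT-qPCR for CJ and AJ junctions, normalized to GAPDH or GUSB; ΔΔCt vs DMSO converted to RQ, then to percentage response using fixed ΔCt windows.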

A further experiment has as its system HTT mRNA. The description is as above. The class given is cell-based. The note with it: Homo sapiens, K562.3 cells, 24 hours; for AC50: read-out: HTT AJ (AC50, increase in AJ mRNA); for pIC50: read-out: HTT CJ (IC50, decrease in CJ mRNA). The essentials: as §1

pIC50: −log10 of the molar value.

With `Cc1cn2cc(NS(=O)(=O)c3ccc(N4C[C@@H](C)N[C@@H](C)C4)c4cn(C)nc34)cc(F)c2n1` [Compound 279], in the experiment with MYB mRNA, the AC50 was greater than 10000 nM and the negative-log IC50 (pIC50) is less than 5.00. Moreover, in the experiment with HTT mRNA, the AC50 is greater than 10000 nM and the pIC50 is less than 5.00.
As to `CCNC1CCN(c2ccc(C(=O)Nc3cc(F)c4nc(COC)cn4c3)c3nn(C)cc23)CC1` [Compound 284, 4-[4-(ethylamino)-1-piperidyl]-N-[8-fluoro-2-(methoxymethyl)imidazo[1,2-a]pyridin-6-yl]-2-methyl-indazole-7-carboxamide], the half-maximal activity concentration (AC50) is 1000 to 10000 nM in the experiment on MYB mRNA and greater than 10000 nM with HTT mRNA. Moreover, the pIC50 in the experiment on MYB mRNA and in the experiment with HTT mRNA was 5.00 to 6.00 each time.
As to `COCCN[C@@H]1CCN(c2cc(O)c(C(=O)Nc3cc(F)c4nc(C)cn4c3)c3nn(C)cc23)C1` [Compound 285, N-(8-fluoro-2-methyl-imidazo[1,2-a]pyridin-6-yl)-6-hydroxy-4-[(3R)-3-(2-methoxyethylamino)pyrrolidin-1-yl]-2-methyl-indazole-7-carboxamide], in the experiment with MYB mRNA, the AC50 is less than 100 nM and the pIC50 is greater than 7.00. In addition, in the experiment on HTT mRNA, the half-maximal activity concentration (AC50) is greater than 10000 nM and the pIC50 was less than 5.00.
In the case of `Cc1cn2cc(NC(=O)c3c(O)cc(N4CC[C@@H](NC5CC5)C4)c4cn(C)nc34)cc(F)c2n1` [Compound 288, 4-[(3R)-3-(cyclopropylamino)-pyr-rolidin-1-yl]-N-(8-fluoro-2-methyl-imidazo[1,2-a]pyridin-6-yl)-6-hydroxy-2-methyl-indazole-7-carboxamide], the AC50 is less than 100 nM in the experiment with MYB mRNA and greater than 10000 nM in the experiment with HTT mRNA. The figures for the negative logarithm of the IC50 (pIC50) in the experiment on MYB mRNA and in the experiment with HTT mRNA were greater than 7.00 and less than 5.00, respectively.
Take `Cn1cc2cc(NC(=O)c3c(O)cc(N4CC[C@@H](NC5CC5)C4)c4cn(C)nc34)cc(F)c2n1` [Compound 291, 4-[(3R)-3-(cyclopropylamino)pyrrolidin-1-yl]-N-(7-fluoro-2-methyl-indazol-5-yl)-6-hydroxy-2-methyl-indazole-7-carboxamide]: the values for the AC50 in the experiment on MYB mRNA and with HTT mRNA were less than 100 nM and 1000 to 10000 nM, respectively. Further, the pIC50 with MYB mRNA is greater than 7.00; in the experiment on HTT mRNA it was 5.00 to 6.00.
For the compound `CCN[C@@H]1CCN(c2cc(O)c(C(=O)Nc3cc(F)c4nn(C)cc4c3)c3nn(C)cc23)C1` [Compound 294, 4-[(3R)-3-(ethylamino)-pyrrolidin-1-yl]-N-(7-fluoro-2-methyl-indazol-5-yl)-6-hydroxy-2-methyl-indazole-7-carboxamide], in the experiment on MYB mRNA, the AC50 was less than 100 nM and the pIC50 was greater than 7.00. For the same compound, in the experiment on HTT mRNA, the half-maximal activity concentration (AC50) lay in the range of 1000 to 10000 nM and the pIC50 was 6.00 to 7.00.
With `Cc1cn2cc(NC(=O)c3ccc(N4CCC(NC5CC5)CC4)c4cn(C)nc34)nc2c(C)n1` [Compound 297, 4-[4-(cyclopropylamino)-1-piperidyl]-N-(6,8-dimethylimidazo[1,2-a]pyrazin-2-yl)-2-methyl-indazole-7-carboxamide], the values for the AC50 in the experiment with MYB mRNA and in the experiment with HTT mRNA were 100 to 1000 nM and greater than 10000 nM, respectively. Moreover, the pIC50 with MYB mRNA is 6.00 to 7.00; with HTT mRNA it was less than 5.00.
For the compound `COc1c(NC(=O)c2ncc(N3CCNCC3)c3cn[nH]c23)cn2cc(C)nc2c1F` [Compound 606, N-(8-fluoro-7-methoxy-2-methyl-imidazo[1,2-a]pyridin-6-yl)-4-piperazin-1-yl-1H-pyrazolo[3,4-c]pyridine-7-carboxamide], in the experiment on MYB mRNA, the AC50 is greater than 10000 nM and the pIC50 was less than 5.00. Moreover, in the experiment on HTT mRNA, the AC50 was greater than 10000 nM and the pIC50 was less than 5.00.
Consider `COc1c(NC(=O)c2c(F)cc(N3CCNCC3)c3cn[nH]c23)cn2cc(C)nc2c1F` [Compound 607, 6-fluoro-N-(8-fluoro-7-methoxy-2-methyl-imidazo[1,2-a]pyridin-6-yl)-4-piperazin-1-yl-1H-indazole-7-carboxamide], for which the AC50 was less than 100 nM in the experiment on MYB mRNA and 1000 to 10000 nM in the experiment on HTT mRNA. The negative logarithm of the IC50 (pIC50) was greater than 7.00 in the experiment with MYB mRNA and 6.00 to 7.00 with HTT mRNA.
Regarding `Cc1cn2cc(NC(=O)c3ccc(N4C[C@@H](C)N[C@@H](C)C4)c4c3nnn4C)cc(F)c2n1` [Compound 635], in the experiment on MYB mRNA, the AC50 lay within 100 to 1000 nM and the pIC50 is 6.00 to 7.00. Also, in the experiment on HTT mRNA, the AC50 is 1000 to 10000 nM and the pIC50 was 5.00 to 6.00.
